Patent US20090209585A1, “CYCLOALKENE DERIVATIVES, PROCESS FOR PRODUCTION OF THE DERIVATIVES, AND USE OF THE SAME” (priority 2006, published 2009)
Values after ≈ are worked out from the molar mass of the structure shown. Counter-ions that a name gives are not always drawn.

Experiments:
[1] = Solubility according to Japanese Pharmacopoeia general notices, analyzed by HPLC; format: physicochemical; settings: thermodynamic from solid, treated according to Japanese Pharmacopoeia
Description: The compounds of Examples 9, 12 and 15 were measured and placed in a glass container by 1 mg each, saline was added in small portions, and the mixture was stirred. The solubility was visually observed. In addition, as a conventional compound having a nitric oxide (NO) production inhibitory effect and an inflammatory cytokine production inhibitory effect, ethyl 6-[N-(2-chloro-4-fluorophenyl)sulfamoyl]cyclohex-1-ene-1-carboxylate (indicated as conventional compound in Table 1) was treated according to the Japanese Pharmacopoeia, general notices, and analyzed by HPLC to determined the solubility.

[2] = system: Female BALB/c mice inoculated with LPS; experiment: Evaluation of efficacy in mouse endotoxin shock model; format: in vivo; settings: 10 mg/kg intravenously in saline, 1 hr before LPS 5 mg/kg intraperitoneally; survival at 5 days from LPS inoculation; 7 mice per group
Description: Female BALB/c mice (6-week-old) were purchased and, after preliminary rearing for 1 week, divided into groups (7 per group). The compound of Example 3 was dissolved in saline immediately before administration, and intravenously administered at 10 mg/kg. For the control group, a solvent was administered in the same manner. One hour later, LPS (5 mg/kg) was intraperitoneally inoculated, and the survival of the mice was observed. The efficacy was evaluated based on the survival rate at 5 days from LPS inoculation.

physchem = settings: saline, saline or isotonic

## CCOC(=O)C1=CCCCC1S(=O)(=O)Nc1ccc(F)cc1Cl (stereo not shown) [Conventional compound, ethyl 6-[N-(2-chloro-4-fluorophenyl)sulfamoyl]cyclohex-1-ene-1-carboxylate]
[1]
  solubility: 10 µg/mL (≈ 27.6 µM)

## CCOC(=O)C1=CCCCC1S(=O)(=O)N(COC(=O)OCCCC(=O)O)c1ccc(F)cc1Cl (stereo not shown) [Example 3, sodium 4-({[((2-chloro-4-fluorophenyl){[2-(ethoxycarbonyl)cyclohex-2-en-1-yl]sulfonyl}amino)methoxy]carbonyl}oxy)butanoate]
[2]
  number of survived mice (N = 7): 6

## CCOC(=O)C1=CCCCC1S(=O)(=O)N(Cc1cc(C)c(OC(=O)CNC)c(C)c1)c1ccc(F)cc1Cl (stereo not shown) [Example 21, ethyl 6-[((2-chloro-4-fluorophenyl){3,5-dimethyl-4-[(N-methylglycyl)oxy]benzyl}amino)sulfonyl]cyclohex-1-ene-1-carboxylate hydrochloride]
physchem
  solubility: ≥ 1000 µg/mL

## CCOC(=O)C1=CCCCC1S(=O)(=O)N(Cc1cc(C)c(OC(=O)[C@@H]2CCCN2)c(C)c1)c1ccc(F)cc1Cl (stereo partly drawn) [Example 23, 4-[((2-chloro-4-fluorophenyl){[2-(ethoxycarbonyl)cyclohex-2-en-1-yl]sulfonyl}amino)methyl]-2,6-dimethylphenyl L-prolinate]
physchem
  solubility: ≥ 1000 µg/mL
